Data on 21 compounds can be found in patent US12692254B2, “Benzimidazole inhibitors of PAD enzymes” (BRISTOL-MYERS SQUIBB COMPANY, priority 2018, dated 2026).

The experiment deals with human PAD4 (hPAD4) (Homo sapiens, UniProt Q9UM07). Description: RFMS human PAD4 functional assay (rapid-fire mass spectrum). Conditions: 5 nM hPAD4 enzyme, 250 μM BAEE, 50 μM Calcium; 30 min preincubation, 90 min reaction at 37° C. In kind it is biochemical. In short, it runs like this:
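PAD4 (10 nM) preincubated 30 min with compound (top final 50 μM), then BAEE substrate added in pH 7.5 HEPES buffer with DTT, 50 μM calcium, TPEN; 90 min at 37° C. After TCA quench, citrulline derivatized with phenyl glyoxal (4 mM final, 30 min, 37° C) and quantified by RapidFire MS against internal standard.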

The structures appear in SMILES notation.

Broadly, the IC50 is the concentration that inhibits the measured activity by half.

human PAD4 (hPAD4), sequence (Q9UM07 whole entry): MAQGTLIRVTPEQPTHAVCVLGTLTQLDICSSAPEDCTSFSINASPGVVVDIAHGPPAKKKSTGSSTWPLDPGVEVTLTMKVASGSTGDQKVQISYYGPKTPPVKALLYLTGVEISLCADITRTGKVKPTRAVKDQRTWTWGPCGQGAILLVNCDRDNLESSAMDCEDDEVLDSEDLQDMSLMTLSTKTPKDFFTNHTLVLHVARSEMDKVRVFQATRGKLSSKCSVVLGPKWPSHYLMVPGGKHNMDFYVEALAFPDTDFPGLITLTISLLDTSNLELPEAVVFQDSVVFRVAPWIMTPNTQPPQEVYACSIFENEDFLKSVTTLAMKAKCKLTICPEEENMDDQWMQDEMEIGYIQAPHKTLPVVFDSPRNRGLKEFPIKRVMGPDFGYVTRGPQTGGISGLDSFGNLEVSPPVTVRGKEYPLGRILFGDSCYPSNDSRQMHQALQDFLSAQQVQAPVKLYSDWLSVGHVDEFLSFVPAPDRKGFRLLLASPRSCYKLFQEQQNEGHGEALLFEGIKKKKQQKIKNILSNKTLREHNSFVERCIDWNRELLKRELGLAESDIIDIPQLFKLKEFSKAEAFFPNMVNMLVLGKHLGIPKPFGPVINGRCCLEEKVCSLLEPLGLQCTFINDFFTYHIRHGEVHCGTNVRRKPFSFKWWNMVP

Consider `COc1cc(C(=O)N2C[C@H]3CC[C@@H]2[C@@H]3N)cc2nc(-c3cc4cccnc4n3CC3CC3)n(CC3CN(c4ccnc(C)n4)C3)c12` [Example 16, (1R,4R,7R)-2-{2-[1-(cyclopropylmethyl)-1H-pyrrolo[2,3-b]pyridin-2-yl]-7-methoxy-1-{[1-(2-methylpyrimidin-4-yl)azetidin-3-yl]methyl}-1H-1,3-benzodiazole-5-carbonyl}-2-azabicyclo[2.2.1]heptan-7-amine], for which the IC50 stood at 48 nM.

Regarding `COc1cc(C(=O)N2CC(CN)C2)cc2nc(-c3cc4ccccc4n3CC3CC3)n(Cc3cnn(C)c3)c12` [Example 291, (1-{2-[1-(cyclopropylmethyl)-1H-indol-2-yl]-7-methoxy-1-[(1-methyl-1H-pyrazol-4-yl)methyl]-1H-1,3-benzodiazole-5-carbonyl}azetidin-3 yl)methanamine], the IC50 stood at 1910 nM. With `COc1cc(C(=O)N2C[C@H]3CC[C@@H]2[C@@H]3N)cc2nc(-c3cc4ccccc4n3C)n(CC3CN(c4ccnc(C)n4)C3)c12` [Example 6, ((1R,4R,7R)-7-amino-2-azabicyclo[2.2.1]heptan-2-yl)(7-methoxy-2-(1-methyl-1H-indol-2-yl)-1-((1-(2-methylpyrimidin-4-yl)azetidin-3-yl)methyl)-1H-benzo[d]imidazol-5-yl)methanone], the IC50 came out at 78 nM.

Consider `COc1cc(C(=O)N2CC3CCC2[C@@H]3N)cc2nc(-c3cc4cccnc4n3CC3CC3)n(Cc3cnn(-c4cccnc4O)c3)c12` (stereo partly drawn) [Example 374, 3-[4-({5-[(7R)-7-amino-2-azabicyclo[2.2.1]heptane-2-carbonyl]-2-[1-(cyclopropylmethyl)-1H-pyrrolo[2,3-b]pyridin-2-yl]-7-methoxy-1H-1,3-benzodiazol-1-yl}methyl)-1H-pyrazol-1-yl]pyridin-2-ol], for which the IC50 turned out to be 35 nM. On to `COc1cc(C(=O)N2C[C@H]3CC[C@@H]2[C@@H]3N)cc2nc(-c3cc4cccnc4n3CC3CC3)n(CC3CN(c4nnc(C)o4)C3)c12` [Example 56, (1R,4R,7R)-2-{2-[1-(cyclopropylmethyl)-1H-pyrrolo[2,3-b]pyridin-2-yl]-7-methoxy-1-{[1-(5-methyl-1,3,4-oxadiazol-2-yl)azetidin-3-yl]methyl}-1H-1,3-benzodiazole-5-carbonyl}-2-azabicyclo[2.2.1]heptan-7-amine], for which the IC50 amounted to 166 nM. Consider `COc1cc(C(=O)N2CC3CCC2[C@@H]3N)cc2nc(-c3cc4cccnc4n3CC3CC3)n(Cc3ccnn3C)c12` (stereo partly drawn) [Example 496, (7R)-2-{2-[1-(cyclopropylmethyl)-1H-pyrrolo[2,3-b]pyridin-2-yl]-7-methoxy-1-[(1-methyl-1H-pyrazol-5-yl)methyl]-1H-1,3-benzodiazole-5-carbonyl}-2-azabicyclo[2.2.1]heptan-7-amine], for which the IC50 worked out at 102 nM. The value for `COc1cc(C(=O)N2C[C@H](N)C[C@@H](F)C2)cc2nc(-c3cc4cccnc4n3CC3CC3)n(Cc3cnn(-c4cccc(F)n4)c3)c12` [Example 344, (3R,5R)-1-{2-[1-(cyclopropylmethyl)-1H-pyrrolo[2,3-b]pyridin-2-yl]-1-{[1-(6-fluoropyridin-2-yl)-1H-pyrazol-4-yl]methyl}-7-methoxy-1H-1,3-benzodiazole-5-carbonyl}-5-fluoropiperidin-3-amine] was 39 nM; that for `COc1cc(C(=O)N2C[C@H](N)C[C@@H](F)C2)cc2nc(-c3cc4cccnc4n3CC3CC3)n(Cc3cnn(-c4ccc(F)cn4)c3)c12` [Example 345, (3R,5R)-1-{2-[1-(cyclopropylmethyl)-1H-pyrrolo[2,3-b]pyridin-2-yl]-1-{[1-(5-fluoropyridin-2-yl)-1H-pyrazol-4-yl]methyl}-7-methoxy-1H-1,3-benzodiazole-5-carbonyl}-5-fluoropiperidin-3-amine] was 49 nM.

Consider `COc1cc(C(=O)N2CC3CCC2[C@@H]3N)cc2nc(-c3cc4ccccc4n3CC3CC3)n(CC3CN(C(=O)c4ccc(Cl)s4)C3)c12` (stereo partly drawn) [Example 445, (7R)-2-(1-{[1-(5-chlorothiophene-2-carbonyl)azetidin-3-yl]methyl}-2-[1-(cyclopropylmethyl)-1H-indol-2-yl]-7-methoxy-1H-1,3-benzodiazole-5-carbonyl)-2-azabicyclo[2.2.1]heptan-7-amine], for which the IC50 turned out to be 43 nM. In the case of `COc1cc(C(=O)N2CC3CCC2[C@@H]3N)cc2nc(-c3cc4cccnc4n3CC3CC3)n(CC3CN(C(=O)C4CCC(F)(F)C4)C3)c12` (stereo partly drawn) [Example 430, (7R)-2-{2-[1-(cyclopropylmethyl)-1H-pyrrolo[2,3-b]pyridin-2-yl]-1-{[1-(3,3-difluorocyclopentanecarbonyl)azetidin-3-yl]methyl}-7-methoxy-1H-1,3-benzodiazole-5-carbonyl}-2-azabicyclo[2.2.1]heptan-7-amine], the IC50 was found to be 30 nM.

Consider `COc1cc(C(=O)N2C[C@H](N)C[C@@H](F)C2)cc2nc(-c3cc4cccnc4n3CC3CC3)n(Cc3ccnn3C)c12` [Example 518, (3R,5R)-1-{2-[1-(cyclopropylmethyl)-1H-pyrrolo[2,3-b]pyridin-2-yl]-7-methoxy-1-[(1-methyl-1H-pyrazol-5-yl)methyl]-1H-1,3-benzodiazole-5-carbonyl}-5-fluoropiperidin-3-amine], for which the IC50 was determined as 606 nM.

Turning to `COc1cc(C(=O)N2C[C@H]3CC[C@@H]2[C@@H]3N)cc2nc(-c3cc4cccnc4n3CC3CC3)n(C3CCN(C(=O)c4ccnc(C#N)c4)CC3)c12` [Example 240, 4-(4-{5-[(1R,4R,7R)-7-amino-2-azabicyclo[2.2.1]heptane-2-carbonyl]-2-[1-(cyclopropylmethyl)-1H-pyrrolo[2,3-b]pyridin-2-yl]-7-methoxy-1H-1,3-benzodiazol-1-yl}piperidine-1-carbonyl)pyridine-2-carbonitrile], the IC50 was determined as 1440 nM. The value for `COc1cc(C(=O)N2C[C@H](N)CC[C@@H]2C)cc2nc(-c3cc4ccccc4n3CC3CC3)n(Cc3cnn(C)c3)c12` [Example 251, ((2S,5R)-5-amino-2-methylpiperidin-1-yl)(2-(1-(cyclopropylmethyl)-1H-indol-2-yl)-7-methoxy-1-((1-methyl-1H-pyrazol-4-yl)methyl)-1H-benzo[d]imidazol-5-yl)methanone] was 48 nM.

As for `COc1cc(C(=O)N2C[C@H]3CC[C@@H]2[C@@H]3N)cc2nc(-c3cc4ccccc4n3CC3CC3)n(CCCOc3ccc(C#N)cc3)c12` [Example 260, 4-(3-{5-[(1R,4R,7R)-7-amino-2-azabicyclo[2.2.1]heptane-2-carbonyl]-2-[1-(cyclopropylmethyl)-1H-indol-2-yl]-7-methoxy-1H-1,3-benzodiazol-1-yl}propoxy)benzonitrile], the IC50 is 48 nM.

Take `COc1ccc2cc(-c3nc4cc(C(=O)N5C[C@H]6CC[C@@H]5[C@@H]6N)cc(OC)c4n3CC3CN(C(=O)c4cnc(C#N)nc4)C3)n(CC3CC3)c2n1` [Example 177, 5-[3-({5-[(1R,4R,7R)-7-amino-2-azabicyclo[2.2.1]heptane-2-carbonyl]-2-[1-(cyclopropylmethyl)-6-methoxy-1H-pyrrolo[2,3-b]pyridin-2-yl]-7-methoxy-1H-1,3-benzodiazol-1-yl}methyl)azetidine-1-carbonyl]pyrimidine-2-carbonitrile]: the IC50 came to 54 nM. In the case of `COc1cc(C(=O)N2C[C@H]3CC[C@@H]2[C@@H]3N)cc2nc(-c3cc4ccccc4n3CC3CC3)n(CC3CN(C(=O)c4ccc(C#N)c(F)c4)C3)c12` [Example 135, 4-[3-({5-[(1R,4R,7R)-7-amino-2-azabicyclo[2.2.1]heptane-2-carbonyl]-2-[1-(cyclopropylmethyl)-1H-indol-2-yl]-7-methoxy-1H-1,3-benzodiazol-1-yl}methyl)azetidine-1-carbonyl]-2-fluorobenzonitrile], the IC50 was 8 nM. In the case of `COc1cc(C(=O)N2C[C@H]3CC[C@@H]2[C@@H]3N)cc2nc(-c3cc4ccccc4n3C)n(CC3CN(C(=O)c4ccccc4)C3)c12` [Example 181, (1R,4R,7R)-2-{1-[(1-benzoylazetidin-3-yl)methyl]-7-methoxy-2-(1-methyl-1H-indol-2-yl)-1H-1,3-benzodiazole-5-carbonyl}-2-azabicyclo[2.2.1]heptan-7-amine], the IC50 was determined as 101 nM. As for `COc1cc(C(=O)N2CC3CCC2[C@@H]3N)cc2nc(-c3cc4ccccc4n3CC3CC3)n(CC3CN(C(=O)c4ccnc(C#N)c4)C3)c12` (stereo partly drawn) [Example 451, 4-[3-({5-[(7R)-7-amino-2-azabicyclo[2.2.1]heptane-2-carbonyl]-2-[1-(cyclopropylmethyl)-1H-indol-2-yl]-7-methoxy-1H-1,3-benzodiazol-1-yl}methyl)azetidine-1-carbonyl]pyridine-2-carbonitrile], the IC50 was determined as 47 nM. As for `COc1cc(C(=O)N2C[C@H](N)CC[C@@H]2C)cc2nc(-c3cc4cccnc4n3CC3CC3)n(CC3CN(C(=O)c4ccccc4)C3)c12` [Example 470, (3R,6S)-1-{1-[(1-benozylazetidin-3-yl)methyl]-2-[1-(cyclopropylmethyl)-1H-pyrrolo[2,3-b]pyridin-2-yl]-7-methoxy-1H-1,3-benzodiazole-5-carbonyl}-6-methylpiperidin-3-amine], the IC50 came out at 177 nM. The value for `COc1cc(C(=O)N2C[C@H]3CC[C@@H]2[C@@H]3N)cc2nc(-c3cc4cccnc4n3CC3CC3)n(C[C@H]3CCNC3)c12` [Example 263, (1R,4R,7R)-2-{2-[1-(cyclopropylmethyl)-1H-pyrrolo[2,3-b]pyridin-2-yl]-7-methoxy-1-{[(3S)-pyrrolidin-3-yl]methyl}-1H-1,3-benzodiazole-5-carbonyl}-2-azabicyclo[2.2.1]heptan-7-amine] was 20 nM. In the case of `COc1cc(C(=O)N2C[C@H](N)C[C@@H](F)C2)cc2nc(-c3cc4cccnc4n3CC3CC3)n(Cc3cnn(-c4cccc(C)n4)c3)c12` [Example 363, (3R,5R)-1-{2-[1-(cyclopropylmethyl)-1H-pyrrolo[2,3-b]pyridin-2-yl]-7-methoxy-1-{[1-(6-methylpyridin-2-yl)-1H-pyrazol-4-yl]methyl}-1H-1,3-benzodiazole-5-carbonyl}-5-fluoropiperidin-3-amine], the IC50 worked out at 25 nM.
